Reference: PubChem BioAssay AID1351 (Sanford-Burnham Center for Chemical Genomics, 2008)
Values joined by “and” are separate entries in the source; they are usually repeats but may differ in a detail not shown here. Equal values may be shown once.

Test system: PPC-1 thapsigargin-induced death, ATPlite luminescence, 24 h
Experiment: protection of PPC-1 cells from thapsigargin, SAR follow-up, human prostate cancer PPC-1, ATP luminescence (AID 1351)
Conditions: at 25 µM, stronger effect = higher value
[1] = measured here: survival at thapsigargin 15 uM
[2] = measured here: survival at thapsigargin 20 uM
[3] = survival at lower thapsigargin concentration

COc1ccc(C2CC(=O)C3=C(C2)Nc2ccccc2NC3c2cccc(Br)c2)cc1OC (centres undefined)
survival: 85% | survival [1]: 102% | survival [2]: 59% | survival [3]: 94% and 100%

COc1ccc(C2CC(=O)C3=C(C2)Nc2ccccc2NC3c2cccc(Oc3ccccc3)c2)cc1OC (centres undefined)
survival: 89% | survival [1]: 95% | survival [2]: 69% | survival [3]: 91% and 92%

COc1ccc(C2CC(=O)C3=C(C2)Nc2ccccc2NC3c2cccc(C(F)(F)F)c2)cc1OC (centres undefined)
survival: 94% | survival [1]: 99% | survival [2]: 69% | survival [3]: 93% and 94%

CCOc1cccc(C2Nc3ccccc3NC3=C2C(=O)CC(c2ccc(OC)cc2)C3)c1 (centres undefined)
survival: 39% | survival [1]: 14% | survival [2]: 15% | survival [3]: 81% and 87%

O=C1CC(c2ccccc2)CC2=C1C(c1c(F)cccc1Cl)Nc1ccccc1N2 (centres undefined)
survival: 90% | survival [1]: 35% | survival [2]: 18% | survival [3]: 86% and 92%

CCOc1cc(C2Nc3ccccc3NC3=C2C(=O)CC(c2ccc(OC)cc2)C3)cc(Cl)c1O (centres undefined)
survival: 62% | survival [1]: 11% | survival [2]: 8.5% | survival [3]: 82% and 90%

CSc1ccc(C2Nc3ccccc3NC3=C2C(=O)CC(c2ccccc2)C3)cc1 (centres undefined)
survival: 89% | survival [1]: 52% | survival [2]: 26% | survival [3]: 95% and 105%

CC1(C)CC(=O)C2=C(C1)Nc1ccccc1NC2c1ccc(-c2ccccc2)cc1 (centres undefined)
survival: 90% | survival [1]: 86% | survival [2]: 87% | survival [3]: 81% and 101%

COc1ccc(C2CC(=O)C3=C(C2)Nc2ccccc2NC3c2ccccc2C(F)(F)F)cc1OC (centres undefined)
survival: 105% | survival [1]: 108% | survival [2]: 56% | survival [3]: 97% and 102%

COc1ccc(C2CC(=O)C3=C(C2)Nc2ccccc2NC3c2cc(C)ccc2C)cc1 (centres undefined)
survival: 88% | survival [1]: 83% | survival [2]: 32% | survival [3]: 85% and 91%

CCCOc1ccc(C2Nc3ccccc3NC3=C2C(=O)CC(c2ccc(OC)c(OC)c2)C3)cc1 (centres undefined)
survival: 90% | survival [1]: 75% | survival [2]: 37% | survival [3]: 82% and 81%
